Measurements published in patent US11225460B2, “Pyrrolidineamide derivatives and uses thereof” (SUNSHINE LAKE PHARMA CO., LTD., priority 2019, dated 2022).
Where two headings read alike, the source gives them in different places.

Tests used:
[1] = Evaluation of blood-brain barrier (BBB) after peritoneal injection in rats; assay type: in vivo; conditions: SD rats, intraperitoneal 10 mg/kg; for Kp at 15 min / Kp at 60 min / Kp at 120 min: Sprague-Dawley, rat
Procedure: The analysis method was the same as example B.
The experiment was divided into three groups: 15 min group, 1 h group and 2 h group. After overnight fasting for 12 hours, SD rats were administered by intraperitoneal injection with the compound of the invention in the form of 5% DMSO+5% Kolliphor HS15+90% Saline solution at a dose of 10 mg/kg. Blood, cerebrospinal fluid and brain tissue were collected at 15 minutes, 1 hour and 2 hours respectively after administration. Blood samples were centrifuged at 3,000 or 4,000 rpm for 10 minutes. The plasma solution was collected and kept at −20° C. or −70° C. The cerebrospinal fluid was processed using a protein precipitation method. A certain volume of cerebrospinal fluid sample were precisely absorbed and precipitated by adding 5 times acetonitrile solution containing internal standard. The mixture was mixed well by vortexing, and then centrifuged for 2 minutes at 12,000 rpm at 4° C., the supernatant was kept at −80° C. Brain tissue was homogenized with 2 times methanol solution, and centrifuged to get the supernatant, the supernatant were precipitated by adding 5 times acetonitrile solution containing internal standard.
The mixture was mixed well by vortexing, and then centrifuged for 2 minutes at 12,000 rpm at 4° C., the supernatant was kept at −80° C. LC-MS/MS method was used to detect the concentration of target compounds, BBB permeability was calculated and statistical analysis was carried out.

[2] = biological target: T1, Human recombinant monoamine oxidase A (Homo sapiens, UniProt P21397); assay: Inhibitory effect on the activity of monoamine oxidase A; assay type: biochemical; conditions: human recombinant MAO-A, substrate p-tyramine hydrochloride
T1 construct: host or cells: Sf9 cells
T1 sequence (P21397 1-527): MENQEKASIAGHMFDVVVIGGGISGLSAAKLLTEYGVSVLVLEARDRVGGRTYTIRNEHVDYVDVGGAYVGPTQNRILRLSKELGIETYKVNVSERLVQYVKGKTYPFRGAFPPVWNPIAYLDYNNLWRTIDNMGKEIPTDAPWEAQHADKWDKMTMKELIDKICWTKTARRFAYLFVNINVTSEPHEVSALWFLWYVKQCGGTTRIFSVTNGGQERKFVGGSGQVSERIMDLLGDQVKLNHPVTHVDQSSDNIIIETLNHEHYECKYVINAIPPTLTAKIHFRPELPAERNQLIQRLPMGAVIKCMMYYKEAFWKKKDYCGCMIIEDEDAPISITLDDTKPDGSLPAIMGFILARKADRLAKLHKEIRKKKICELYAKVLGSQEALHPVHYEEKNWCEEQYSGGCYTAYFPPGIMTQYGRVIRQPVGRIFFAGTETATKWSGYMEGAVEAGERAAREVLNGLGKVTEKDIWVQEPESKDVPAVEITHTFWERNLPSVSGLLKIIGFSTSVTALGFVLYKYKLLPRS
Procedure: Human recombinant monoamine oxidase A expressed in Sf9 cells was used in the test system. In the experiment, firstly, the recombinant monoamine oxidase A was dissolved in the pre-configured HEPES buffer (0.8% NaCl, 0.037% KCl, 0.0135% Na2HPO4.2H2O, 0.1% Glucan, 0.5% HEPES, pH=7.0) at a concentration of 0.3 μg/μL. To each well of a 384-well plate was added 10 μL of monoamine oxidase A solution, and the test compound with different concentrations (the final concentration of DMSO was 1%) (10 gradient concentrations were 10 mM, 1 mM, 100 μM, 10 μM, 1 μM, 100 nM, 10 nM, 1 nM, 0.1 nM, 0.01 nM) were added into the wells, respectively. The standard reference compound was Clorgyline, the plate was incubated at room temperature for 15 min. Then, each well filled with […] (p-Tyramine hydrochloride, 1 mM) was incubated at room temperature for 60 min. Then 20 μL of fluorescein detection reagent was added to each well, which was fully blended and incubated at room temperature for 20 minutes to produce stable fluorescence signal. The fluorescence signal was read by fluorescein labeling instrument, and the value was expressed by relative light intensity (RLU). The inhibitory rate on enzyme activity was calculated according to the experimental results, the calculated formula: Inh %=(Max−Signal)/(Max−Min)*100, wherein Max was the detected value at the maximum concentration of the sample, Min was the detected value at the minimum concentration of the sample, and Signal was the detected value at the current concentration of the sample.
The standard curve was obtained through the series concentration by experimental test to calculate the IC50.

[3] = brain, 15 min, read-out: T/P Ratio Brain (brain tissue)
[4] = brain, 60 min, read-out: T/P Ratio Brain (brain tissue)
[5] = brain, 120 min, read-out: T/P Ratio Brain (brain tissue)
[6] = cerebrospinal fluid, 15 min, read-out: T/P Ratio CSF (cerebrospinal fluid)
[7] = cerebrospinal fluid, 60 min, read-out: T/P Ratio CSF (cerebrospinal fluid)
[8] = cerebrospinal fluid, 120 min, read-out: T/P Ratio CSF (cerebrospinal fluid)

Structure (SMILES)	Conc. Brain (brain tissue) ([1]; 15 min)	Conc. CSF (cerebrospinal fluid) ([1]; 15 min)	Conc. Plasm (plasma) ([1]; 15 min)	Conc. Brain (brain tissue) ([1]; 60 min)	Conc. CSF (cerebrospinal fluid) ([1]; 60 min)	Conc. Plasm (plasma) ([1]; 60 min)	Conc. Brain (brain tissue) ([1]; 120 min)	Conc. CSF (cerebrospinal fluid) ([1]; 120 min)	Conc. Plasm (plasma) ([1]; 120 min)	Kp at 15 min [1, 3]	Kp at 60 min [1, 4]	Kp at 120 min [1, 5]	Kp at 15 min [1, 6]	Kp at 60 min [1, 7]	Kp at 120 min [1, 8]	IC50 [2]
NC(=O)[C@@H]1C[C@H](F)CN1Cc1ccc(OCc2cccc(F)c2)cc1F [Example 3, (2S,4S)-4-fluoro-1-(2-fluoro-4-(3-fluorobenzyloxy)benzyl)pyrrolidine-2-formamide]	8610 ng/g or ng/ml	56.67 ng/g or ng/ml	3496.67 ng/g or ng/ml	5253.33 ng/g or ng/ml	39.77 ng/g or ng/ml	1930 ng/g or ng/ml	1576.67 ng/g or ng/ml	13.05 ng/g or ng/ml	686.67 ng/g or ng/ml	2.46	2.72	2.3	0.016	0.021	0.019	29 µM
NC(=O)[C@@H]1C[C@H](F)CN1Cc1ccc(OCc2cccc(F)c2)cc1 [Example 1, (2S,4S)-4-fluoro-1-(4-(3-fluorobenzyloxy)benzyl)pyrrolidine-2-formamide]	10243.33 ng/g or ng/ml	147.67 ng/g or ng/ml	5203.33 ng/g or ng/ml	9273.33 ng/g or ng/ml	61.9 ng/g or ng/ml	2073.33 ng/g or ng/ml	2890 ng/g or ng/ml	34.4 ng/g or ng/ml	864.33 ng/g or ng/ml	1.97	4.47	3.34	0.028	0.03	0.04	46 µM
